Assay results reported in PubChem BioAssay AID2060882 (Molecular Pharmacology Branch, DTP, NCI, 2025).

Tested on: 898857-211-R-J1-PDC complex spheroids, growth % test/control
Experiment: Anticancer human tumor 898857-211-R-J1-PDC patient-derived melanoma cell line growth inhibition [RAS]
Settings: for IC50: curve of first compound; for viability, T/C: stronger effect = lower value
Procedure, shortened: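 Tumour cells grown as complex spheroids with HUVEC endothelial cells and mesenchymal stem cells, treated with RAS pathway inhibitor combinations. Each agent spans half-log steps from near clinical Cmax, or 10 microM where Cmax is unknown.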

[1] = second compound 0.000949 µM, first compound 0.0316 µM
[2] = second compound 0.000949 µM, first compound 0.1 µM
[3] = second compound 0.000949 µM, first compound 0.316 µM
[4] = second compound 0.000949 µM, first compound 1 µM
[5] = second compound 0.003 µM, first compound 0.0316 µM
[6] = second compound 0.003 µM, first compound 0.1 µM
[7] = second compound 0.003 µM, first compound 0.316 µM
[8] = second compound 0.003 µM, first compound 1 µM
[9] = second compound 0.00949 µM, first compound 0.0316 µM
[10] = second compound 0.00949 µM, first compound 0.1 µM
[11] = second compound 0.00949 µM, first compound 0.316 µM
[12] = second compound 0.00949 µM, first compound 1 µM
[13] = second compound 0.03 µM, first compound 0.0316 µM
[14] = second compound 0.03 µM, first compound 0.1 µM
[15] = second compound 0.03 µM, first compound 0.316 µM
[16] = second compound 0.03 µM, first compound 1 µM
[17] = second compound 0.0949 µM, first compound 0.0316 µM
[18] = second compound 0.0949 µM, first compound 0.1 µM
[19] = second compound 0.0949 µM, first compound 0.316 µM
[20] = second compound 0.0949 µM, first compound 1 µM
[21] = second compound 0.3 µM, first compound 0.0316 µM
[22] = second compound 0.3 µM, first compound 0.1 µM
[23] = second compound 0.3 µM, first compound 0.316 µM
[24] = second compound 0.3 µM, first compound 1 µM
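Also: spheroids exposed to compound for seven days before readout.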
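For viability, T/C in this document: 100% = DMSO vehicle control wells.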

## CC(=O)OC12COC1CC(O)C1(C)C(=O)C(O)C3=C(C)C(OC(=O)C(O)C(NC(=O)OC(C)(C)C)c4ccccc4)CC(O)(C(OC(=O)c4ccccc4)C21)C3(C)C (centres undefined) + CCn1c(-c2cc(N3CCN(C)CC3)cnc2C(C)OC)c2c3cc(ccc31)-c1csc(n1)CC(NC(=O)C1CC1C)C(=O)N1CCCC(N1)C(=O)OCC(C)(C)C2
Second compound 0.000949 µM
  IC50: < 31.6 nM
Second compound 0.003 µM
  IC50: < 31.6 nM
Second compound 0.00949 µM
  IC50: < 31.6 nM
Second compound 0.03 µM
  IC50: < 31.6 nM
Second compound 0.0949 µM
  IC50: < 31.6 nM
Second compound 0.3 µM
  IC50: < 31.6 nM
[1]
  viability, T/C: 11.2%
[2]
  viability, T/C: 9.4%
[3]
  viability, T/C: 9.05%
[4]
  viability, T/C: 13.3%
Second compound 0.000949 µM, first compound 3.16 µM
  viability, T/C: 13.9%
Second compound 0.000949 µM, first compound 10 µM
  viability, T/C: 14.7%
[5]
  viability, T/C: 11.4%
[6]
  viability, T/C: 12.9%
[7]
  viability, T/C: 9.53%
[8]
  viability, T/C: 12.5%
Second compound 0.003 µM, first compound 3.16 µM
  viability, T/C: 12.7%
Second compound 0.003 µM, first compound 10 µM
  viability, T/C: 12.8%
[9]
  viability, T/C: 10.9%
[10]
  viability, T/C: 11.4%
[11]
  viability, T/C: 13%
[12]
  viability, T/C: 12.4%
Second compound 0.00949 µM, first compound 3.16 µM
  viability, T/C: 14.6%
Second compound 0.00949 µM, first compound 10 µM
  viability, T/C: 14.2%
[13]
  viability, T/C: 10.9%
[14]
  viability, T/C: 10.7%
[15]
  viability, T/C: 13.3%
[16]
  viability, T/C: 12.9%
Second compound 0.03 µM, first compound 3.16 µM
  viability, T/C: 15.6%
Second compound 0.03 µM, first compound 10 µM
  viability, T/C: 14.6%
[17]
  viability, T/C: 12.1%
[18]
  viability, T/C: 12.2%
[19]
  viability, T/C: 12.3%
[20]
  viability, T/C: 14.4%
Second compound 0.0949 µM, first compound 3.16 µM
  viability, T/C: 14.4%
Second compound 0.0949 µM, first compound 10 µM
  viability, T/C: 15.4%
[21]
  viability, T/C: 12.9%
[22]
  viability, T/C: 11.9%
[23]
  viability, T/C: 11.8%
[24]
  viability, T/C: 15.8%
Second compound 0.3 µM, first compound 3.16 µM
  viability, T/C: 14.9%
Second compound 0.3 µM, first compound 10 µM
  viability, T/C: 18.7%

## Nc1ccn(C2OC(CO)C(O)C2(F)F)c(=O)n1 (centres undefined) + CCn1c(-c2cc(N3CCN(C)CC3)cnc2C(C)OC)c2c3cc(ccc31)-c1csc(n1)CC(NC(=O)C1CC1C)C(=O)N1CCCC(N1)C(=O)OCC(C)(C)C2
Second compound 0.000949 µM
  IC50: 5.06 nM
Second compound 0.003 µM
  IC50: 4.37 nM
Second compound 0.00949 µM
  IC50: 4.35 nM
Second compound 0.03 µM
  IC50: 5.4 nM
Second compound 0.0949 µM
  IC50: 5.47 nM
Second compound 0.3 µM
  IC50: 6.69 nM
Second compound 0.000949 µM, first compound 0.00316 µM
  viability, T/C: 74%
Second compound 0.000949 µM, first compound 0.01 µM
  viability, T/C: 15.3%
[1]
  viability, T/C: 4.42%
[2]
  viability, T/C: 3.83%
[3]
  viability, T/C: 4.13%
[4]
  viability, T/C: 5.1%
Second compound 0.003 µM, first compound 0.00316 µM
  viability, T/C: 64.6%
Second compound 0.003 µM, first compound 0.01 µM
  viability, T/C: 13.1%
[5]
  viability, T/C: 4.34%
[6]
  viability, T/C: 4.05%
[7]
  viability, T/C: 5.71%
[8]
  viability, T/C: 4.93%
Second compound 0.00949 µM, first compound 0.00316 µM
  viability, T/C: 63.7%
Second compound 0.00949 µM, first compound 0.01 µM
  viability, T/C: 14.4%
[9]
  viability, T/C: 4.77%
[10]
  viability, T/C: 4.27%
[11]
  viability, T/C: 4.44%
[12]
  viability, T/C: 4.67%
Second compound 0.03 µM, first compound 0.00316 µM
  viability, T/C: 78%
Second compound 0.03 µM, first compound 0.01 µM
  viability, T/C: 18%
[13]
  viability, T/C: 4.69%
[14]
  viability, T/C: 3.93%
[15]
  viability, T/C: 5.09%
[16]
  viability, T/C: 5.74%
Second compound 0.0949 µM, first compound 0.00316 µM
  viability, T/C: 72%
Second compound 0.0949 µM, first compound 0.01 µM
  viability, T/C: 25.8%
[17]
  viability, T/C: 4.97%
[18]
  viability, T/C: 4.59%
[19]
  viability, T/C: 5.07%
[20]
  viability, T/C: 4.89%
Second compound 0.3 µM, first compound 0.00316 µM
  viability, T/C: 88.6%
Second compound 0.3 µM, first compound 0.01 µM
  viability, T/C: 29.3%
[21]
  viability, T/C: 5.64%
[22]
  viability, T/C: 3.79%
[23]
  viability, T/C: 4.58%
[24]
  viability, T/C: 4.96%
